How the values were obtained:
[1] = biological target: A/PR8-WT virus NA (Influenza A virus (H3N2), UniProt A0A193ACB1); format: biochemical
[2] = biological target: B/BR/60/08 virus NA (Influenza B virus, UniProt C0LT34); format: biochemical; details: read-out: NA enzyme inhibition assay (mean IC50 ± SD)

Compound: CCC(CC)[C@H](NC(C)=O)[C@@H]1[C@H](O)[C@@H](C(=O)O)C[C@H]1N=C(N)N [Peramivir, peramivir]
- fold increase in IC50 over A/PR8-WT [1]: 0.1 ± 0.02 (1) fold
- IC50 ([1]; read-out: NA enzyme inhibition assay (mean IC50 ± SD)): 0.1 nM
- IC50 [2]: 0.5 nM
